Measured values as given in EP3495372B1 (priority 2017, dated 2019).

Columns and labels:
[1] = tested on: differentiated SH-SY5Y human neuroblastoma cells; test: MTT assay, neuroprotective effects against Aβ1-42 cytotoxicity; format: cell-based; settings: 24 h, read-out: increase in the cell viability (MTT assay)
Method: Cell cultures and differentiation: SH-SY5Y cell line were growth in DMEM:F12 (1:1) media including 10% FBS and 1% penicillin/streptomycin at 37 °C and 5% CO2 until cells reach confluence. Then, cells harvested via using trypsin/EDTA solution and transferred to 48 well plates. For differentiation, media were changed to supplemented media with 10 µg/mL retinoic acid and incubated for 5 days. Finally, media were changed into serum free media supplementing with both 10 µM retinoic acid and 25 ng/mL BDNF. Differentiated cells were determined under invert microscope and the cells were used within 10 days (Encinas M, Iglesias M, Liu Y, Wang H, Muhaisen A, Ceña V, Gallego C, Comella JX. Sequential treatment of SH-SY5Y cells with retinoic acid and brain-derived neurotrophic factor gives rise to fully differentiated, neurotrophic factor-dependent, human neuron-like cells. J. Neurochem. 2002; 75:991-1003 e Cheung YT, Lau WKW, Yu MS, Lai CSW, Yeung SC, So KF, Chang RCC. Effects of all-trans-retinoic acid on human SH-SY5Y neuroblastoma as in vitro model in neurotoxicity research. Neurotoxicol. 2009; 30:127-135).
(§1) Control cells (n = 6) were cultured under normal conditions. 1% Triton X, ascorbic acid (10 µM) and hydrogen peroxide (H2O2, 25 µM) were used as positive controls for cell viability, TAC and TOS analysis, respectively.
The cultures without BLA, MEM, or LA were studied as negative control group. 1% Triton-X was added to the culture media to provide negative control group. MTT reduction and LDH release observed after 24 h of Aβ1-42-exposure at 20 µM.

[2] = tested on: differentiated SH-SY5Y human neuroblastoma cells; test: LDH assay, neuroprotective effects against Aβ1-42 cytotoxicity; format: cell-based; settings: with 20 µM Aβ1-42, 24 h
Method: Cell cultures and differentiation: SH-SY5Y cell line were growth in DMEM:F12 (1:1) media including 10% FBS and 1% penicillin/streptomycin at 37 °C and 5% CO2 until cells reach confluence. Then, cells harvested via using trypsin/EDTA solution and transferred to 48 well plates. For differentiation, media were changed to supplemented media with 10 µg/mL retinoic acid and incubated for 5 days. Finally, media were changed into serum free media supplementing with both 10 µM retinoic acid and 25 ng/mL BDNF.
(§2) Cytotechnol. 2015; 67:299-309.
as §1
The cultures without BLA, MEM, or LA were studied as negative control group. 1% Triton-X was added to the culture media to provide negative control group.

[3] = biological target: T1, acetylcholinesterase (AChE) (Homo sapiens, UniProt P22303); test: AChE activity in cellular model of Alzheimer's disease; format: cell-based; settings: with 20 µM Aβ1-42, 24 h
T1 construct: endogenous in cells
Method: Determination of AChE activity: the activity of AChE within the cellular Alzheimer Disease's model was measured by the Acetylcholinesterase Assay Kit (Colorimetric) from Abcam^(R) (Cambridge, MA, USA) according to the manufacturer's recommended protocol.
AChE activity was evaluated in differentiated SH-SY5Y cells treated with BLA, LA, MEM (25 and 50 µM) or media alone for 24 h.

[4] = tested on: differentiated SH-SY5Y cells; test: TAC and TOS analysis in cellular model of Alzheimer's disease; format: cell-based, human; settings: co-treatment with Aβ1-42
Method: TAC and TOS analysis: the automated TAC and TOS assays were carried out by commercially available kits (Rel Assay^(R) Diagnostics, Gaziantep, Turkey) on samples from the cultures.
as §1
Figure 5 and 6 show the effects of BLA and MEM treatments on TAC and TOS levels in cellular model of Alzheimer's disease, respectively.

[5] = tested on: differentiated SH-SY5Y cells; test: Apoptosis detection by Hoechst 33258 staining; format: cell-based, human; settings: 25 and 50 µM co-treatment, 20 µM Aβ1-42, 24 h
Method: Apoptosis detection by Hoechst 33258 staining: Hoechst 33258 staining was used to detect apoptotic nuclei. […] Then, cells fixed with 4% paraformaldehyde in phosphate buffered saline at 4 °C for 30 min. After washing cells with PBS, the nuclear DNAs were incubated with […] Hoechst 33258 fluorescent dye for 5 min at room temperature. Cells were observed and photographed under a fluorescence microscopy (Leica® DM IL LED).

human neuron-like cells = test: Apoptosis-Necrosis assay (Annexin V-FITC/PI flow cytometry); format: cell-based; settings: concentration not given
Method: Apoptosis-Necrosis assay: the frequencies of viable, apoptotic and necrotic cells were detected with the Annexin V-FITC apoptosis detection Kit I (BD Pharmingen, USA). Briefly, 5 x 10^4 cells were collected by centrifugation and cells resuspended in 500 µL of 1X binding buffer. Then, 5 µL of Annexin V-FITC and 5 µl of propidium iodide (PI 50 µg/ml) were added to the cultures and incubated 5 min in the dark. After that, cells fixed with 4% paraformaldehyde in phosphate buffered saline at 4 °C for 30 min. Cells from each well were stained according to the manufacturer's instructions and analyzed using a flow cytometer (CyFlow Cube 6, Partec, Germany). A computer system was used for data acquisition and analysis. Four different populations of cells are detected with the Annexin V-FITC kit: viable cells that are annexin negative and PI negative and express no fluorescence, early apoptotic cells that are annexin positive and PI negative and that express green fluorescence, late apoptotic/necrotic cells that are annexin positive and PI positive and that express green and orange fluorescence, necrotic cells that are annexin negative and PI positive and that express orange fluorescence (Majstorovic I, Vucevic D, Pavlovic B, Vasilijic S, Colic M. An anti-DEC-205 monoclonal antibody stimulates binding of thymocytes to rat thymic dendritic cells and promotes apoptosis of thymocytes. Cent Eur J Immunol. 2014; 39:411-418) .
BLA was considered as more able to protect the human neuron-like cells from Aβ1-42-induced necrosis and late apoptosis than LA or MEM.

[6] = tested on: cultured human lymphocytes; test: SCE assay (genotoxicity); format: cell-based
Method: (§3) All volunteers have signed informed consent.
SCE assay: to provide successive visualization of SCEs, 5-bromo-2-deoxyuridine was added at culture cells. Exactly 70 h and 30 min after beginning of the incubations, demecolcine ([…]) was added to the cultures. After hypotonic treatment (0.075 M KCl), followed by three repetitive cycles of fixation in methanol/acetic acid solution (3:1, v/v), centrifugation and re-suspension, the cell suspension was dropped onto chilled, grease-free microscopic slides, air-dried, aged for three days, and then differentially stained for the inspection of the SCE rate according to the fluorescence plus Giemsa (FPG) procedure. For each treatment condition, well-spread twenty-five second division metaphases containing 42-46 chromosomes per cell were scored and the values obtained were calculated as SCEs per cell.
The frequencies of sister chromatid exchanges (SCEs) with increasing BLA concentrations were investigated in cultured human lymphocytes.

[7] = tested on: cultured human blood cells; test: Nucleic acid oxidation, 8-hydroxy-2'-deoxyguanosine assay; format: cell-based
Source text: as §3
Nucleic acid oxidation: 8-hydroxy-2'-deoxyguanosine assay kits (Cayman Chemical®) was used for determining 8- OH-dG levels in the cultures. It is a competitive assay that can be used for the quantification of 8-OHdG in homogenates and recognizes both free 8-OHdG and DNA-incorporated 8-OH-dG. This assay depends on the competition between 8-OH-dG and 8-OH-dGacetylcholinesterase (AChE) conjugate for a limited amount of 8-OH-dG monoclonal antibody (Abdel-Wahab BA, Metwally ME. Ginkgo biloba enhances the anticonvulsant and neuroprotective effects of sodium valproate against kainic acid-induced seizures in mice. J Pharmacol Toxicol. 2011; 6:679-690). All procedures were carried out in accordance with the provider's manual.
The levels of 8-OH-dG, a sensitive marker of oxidative DNA damage, were quantified about mitomycin (MMC) treatment. […] On the contrary, 8-OH-dG levels were not increased in the blood cells that were treated with BLA, MEM, and LA concentrations.

[8] = tested on: SHSY-5Y human neuroblastoma cell line; test: Antitumor activity, MTT and LDH assays; format: cell-based; settings: dose-dependent
Method: as §2
Antitumor activity of BLA and MEM was tested on SHSY-5Y human neuroblastoma cell line using MTT and LDH assays. Cells were grown to near-confluency before treatment. Growth of the cell line was inhibited by both drug application in a dose-dependent manner.

[9] = cited from earlier work

T1 sequence (P22303 32-614): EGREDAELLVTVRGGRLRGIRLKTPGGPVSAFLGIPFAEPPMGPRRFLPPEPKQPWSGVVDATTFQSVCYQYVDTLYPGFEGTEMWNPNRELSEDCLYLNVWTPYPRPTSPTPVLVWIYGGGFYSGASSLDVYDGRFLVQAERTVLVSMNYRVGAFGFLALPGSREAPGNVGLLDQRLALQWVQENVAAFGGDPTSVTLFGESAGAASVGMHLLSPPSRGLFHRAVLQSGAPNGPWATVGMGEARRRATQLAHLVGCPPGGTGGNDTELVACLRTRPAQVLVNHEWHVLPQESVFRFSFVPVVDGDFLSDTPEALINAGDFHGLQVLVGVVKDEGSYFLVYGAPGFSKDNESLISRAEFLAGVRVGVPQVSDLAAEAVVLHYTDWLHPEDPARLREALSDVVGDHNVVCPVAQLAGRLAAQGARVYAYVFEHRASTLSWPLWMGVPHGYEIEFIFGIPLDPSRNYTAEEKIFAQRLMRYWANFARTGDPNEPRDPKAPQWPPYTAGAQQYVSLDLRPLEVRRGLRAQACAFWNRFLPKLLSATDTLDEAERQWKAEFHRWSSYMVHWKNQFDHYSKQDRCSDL

CC12CC3CC(C)(C1)CC(N)(C3)C2 [MEM, memantine]
viability at 25 µM [1]: 17.3%
viability at 50 µM [1]: 19.4%
viability at 100 µM [1]: 17.1%
increase in the cell viability (inhibited LDH release) ([2]; 25 µM): 56.81%
increase in the cell viability (inhibited LDH release) ([2]; 50 µM): 59.15%
increase in the cell viability (inhibited LDH release) ([2]; 100 µM): 57.28%
reduced Aβ-induced AChE activity ([3]; 25 µM): 14.57%
reduced Aβ-induced AChE activity ([3]; 50 µM): 19.47%
Aβ1-42-induced decreases of TAC and increases of TOS levels [4]: modulated
nuclear integrity and apoptosis by Aβ1-42 (Hoechst 33258) [5]: protected nuclear integrity and inhibited apoptosis
decreased the necrotic cell percentage by Aβ1-42 (human neuron-like cells): 65.97%
frequencies of sister chromatid exchanges (SCEs) [6]: not higher than the control group
8-OH-dG levels [7]: not increased
antitumor effects (growth inhibition) [8]: moderate antitumor effects

CO[C@@]12[C@H](COC(N)=O)C3=C(C(=O)C(C)=C(N)C3=O)N1C[C@@H]1N[C@@H]12 [MMC, mitomycin]
8-OH-dG concentrations ([7]; 10^-7 M, 24 h, positive control): significantly increased

N[C@@H](Cc1ccc(B(O)O)cc1)C(=O)O [p-borophenyalanine]
safe for humans at doses up to [9]: up to 900 mg/kg
